# Experiments:
# [1] = system: rabbit cuticle bleeding; test: rabbit cuticle bleeding study; assay type: in vivo; conditions: 1.5 mg/kg i.v. bolus plus infusion
# Procedure: All procedures performed on these animals were in accordance with regulations and established guidelines and were reviewed and approved by an Institutional Animal Care and Use Committee or through an ethical review process. Rabbits were anesthetized according to established protocols. After anesthesia and cannulation etc., both front paws were shaved to remove fur that would otherwise contaminate saline and wick it out of the tube. Pre dosing bleeds were performed on the middle digit of the left front paw. Post dosing bleeds were performed on the same digit on the right front paw. There were four dosing groups of 10 animals each. […] Furthermore, for the Rivaroxaban treated animals, the i.v. bolus injection was supplemented by a continuous i.v. infusion of Rivaroxaban to maintain proper dosing throughout the duration of the study due to short half-life concerns. Nails were transilluminated with white light to visualize the quick and cut with a razor blade so as to transect the cuticle approximately 1 mm proximal to the apex of the quick. The nail was then immediately immersed in a saline solution in 10×75 mm 3 ml polystyrene (clear) tube. The tube with saline was stored at 37° C. before the cut. The nail was kept in the solution and time to cessation of flow was measured. […] At the end of the blood collection the tube is capped and inverted 5 times and centrifuged at 200 to 250×g for 15 min. The blood cell pellet was resuspended in 3 mL erythrocyte lysis buffer (8.3 g/L NH4Cl, 1.0 g/LKHCO3, and 0.037 g/L EDTA in water). After at least 15 min of lysis time, hemoglobin (Hb) concentration was measured at OD 575 nm using a Spectrophotometer) and expressed as arbitrary absorbance units. As indicated above, baseline cuticle bleeding times were performed prior to dosing. […] 30 minutes later a second cuticle cut was made and bleeding times recorded and blood loss measured. […]
# [2] = system: rabbit model of venous thromboembolism (VTE); test: rabbit model of venous thromboembolism (VTE); assay type: in vivo
# Source text: All procedures performed on these animals were in accordance with regulations and established guidelines and were reviewed and approved by an Institutional Animal Care and Use Committee or through an ethical review process. Rabbits were anesthetized according to established protocols. […] Furthermore, for the Rivaroxaban treated animals, the i.v. bolus injection was supplemented by a continuous i.v. infusion of Rivaroxaban to maintain proper dosing throughout the duration of the study due to short half-life concerns. For all treatment groups, 30 minutes after bolus injection, a sheath of the appropriate size was placed in the left femoral vein. Then a wire of approximately 14 cm with 8 strands of cotton thread attached to it (each 3 cm long) was inserted into the femoral vein. Fluoroscopy was used for guidance of the wire with the threads towards the target area in the vena cava. […] After 90 minutes the device was removed by surgical dissection, cut from the wire, and the clot-containing cotton threads were weighed after having been blotted dry. Prior to IgG dosing, and also prior to surgical removal of threads, a blood sample was drawn for preparation of serum (PK) and plasma (for PD biomarkers APTT and PT).
# [3] = 1.5 mg/kg i.v. bolus plus continuous infusion
smiles,measurement,setting,value
O=C(NC[C@H]1CN(c2ccc(N3CCOCC3=O)cc2)C(=O)O1)c1ccc(Cl)s1 [Rivaroxaban],time to clotting in APTT coagulation assay,[1],significant prolongation in time to clotting
same,time to clotting in PT coagulation assay,[1],significant prolongation in time to clotting
same,total blood loss following cuticle cutting,[1],significantly increased total blood loss
same,"any read outs measured (thrombus weight, APTT, PT)",[2]; 0.045 mg/kg i.v. bolus plus continuous infusion,No effects
same,thrombus/clot weight,[2]; [3],decreased thrombus/clot weight
same,time to clotting in APTT assay,[2]; [3],prolonged time to clotting
same,time to clotting in PT assay,[2]; [3],prolonged time to clotting

# Source: patent publication US11066481B2, “Antibodies to coagulation factor XIa and uses thereof” (THE REGENTS OF THE UNIVERSITY OF CALIFORNIA, priority 2015, dated 2021)
